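Growth conditions: 96-well plates. Treatment: test compound, 48 hours, 5 concentrations. Analysis: linear interpolation between bracketing concentrations; unreached endpoints set to highest concentration. GI50: concentration for 50% inhibition of growth. TGI: total growth inhibition.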
Key:
Assay in all cases: NCI anticancer screen, dose series, 48 h
[1] = test system: HCT-116 colon
[2] = test system: HCC-2998 colon
[3] = test system: T-47D breast
[4] = test system: EKVX NSCLC
[5] = test system: UO-31 renal
[6] = test system: UACC-257 melanoma
[7] = test system: M14 melanoma
[8] = test system: SF-539 CNS
[9] = test system: SK-MEL-2 melanoma
[10] = test system: TK-10 renal
[11] = test system: MALME-3M melanoma
[12] = test system: SN12C renal
[13] = test system: BT-549 breast
[14] = test system: MDA-MB-231 breast
[15] = test system: 786-0 renal
[16] = test system: SW-620 colon
[17] = test system: MOLT-4 leukemia
[18] = test system: COLO 205 colon
[19] = test system: KM12 colon
[20] = test system: MDA-MB-435
[21] = test system: OVCAR-5 ovarian
[22] = test system: UACC-62 melanoma
[23] = test system: SNB-75 CNS
[24] = test system: CAKI-1 renal
[25] = test system: NCI-H23 lung
[26] = test system: RXF 393 renal
[27] = test system: NCI-H460 lung
[28] = test system: RPMI-8226 leukemia
[29] = test system: SK-MEL-28 melanoma
[30] = test system: OVCAR-4 ovarian
[31] = test system: SF-295 CNS
[32] = test system: HOP-62 NSCLC
[33] = test system: OVCAR-3 ovarian
[34] = test system: PC-3 prostate
[35] = test system: SF-268 CNS
[36] = test system: ACHN renal
[37] = test system: U251 CNS
[38] = test system: NCI/ADR-RES ovarian
[39] = test system: SK-MEL-5 melanoma
[40] = test system: CCRF-CEM leukemia
[41] = test system: HL-60(TB) leukemia
[42] = test system: OVCAR-8 ovarian
[43] = test system: SNB-19 CNS
[44] = test system: DU-145 prostate
[45] = test system: HS 578T breast
[46] = test system: NCI-H226 lung
[47] = test system: HCT-15 colon
[48] = test system: A498 renal
[49] = test system: MCF7 breast
[50] = test system: HT29 colon
[51] = test system: SK-OV-3 ovarian
[52] = test system: K-562 leukemia

Q: Which results are given for `CCn1cc(C(=O)O)c(=O)c2cc(F)c(N3CCN(S(=O)(=O)c4ccc(Cl)cc4)CC3)cc21`?
A: GI50 [1]: 3.18 µM; TGI [1]: > 100 µM; GI50 [2]: 4.1 µM; TGI [2]: > 100 µM; GI50 [3]: 3.2 µM; TGI [3]: 14.3 µM; GI50 [4]: 2.25 µM; TGI [4]: 9.89 µM; GI50 [5]: 2.07 µM; TGI [5]: 7.66 µM; GI50 [6]: 2.16 µM; TGI [6]: 5.5 µM; GI50 [7]: 2.85 µM; TGI [7]: > 100 µM; GI50 [8]: 4.12 µM; TGI [8]: > 100 µM; GI50 [9]: 2.57 µM; TGI [9]: 5.67 µM; GI50 [10]: 3.73 µM; TGI [10]: > 100 µM; GI50 [11]: 1.99 µM; TGI [11]: 5.25 µM; GI50 [12]: 2.92 µM; TGI [12]: > 100 µM; GI50 [13]: 2.44 µM; TGI [13]: 7.27 µM; GI50 [14]: 2.51 µM; TGI [14]: > 100 µM; GI50 [15]: 3.77 µM; TGI [15]: > 100 µM; GI50 [16]: 3.43 µM; TGI [16]: > 100 µM; GI50 [17]: 3.83 µM; TGI [17]: > 100 µM; GI50 [18]: 2.62 µM; TGI [18]: 5.84 µM; GI50 [19]: 4.07 µM; TGI [19]: > 100 µM; GI50 [20]: 2.47 µM; TGI [20]: 7.55 µM; GI50 [21]: 4.25 µM; TGI [21]: > 100 µM; GI50 [22]: 2.02 µM; TGI [22]: 7.44 µM; GI50 [23]: 2.6 µM; TGI [23]: 9.81 µM; GI50 [24]: 2.75 µM; TGI [24]: 7.06 µM; GI50 [25]: 2.67 µM; TGI [25]: 7.15 µM; GI50 [26]: 3.32 µM; TGI [26]: > 100 µM; GI50 [27]: 3.16 µM; TGI [27]: > 100 µM; GI50 [28]: 3.08 µM; TGI [28]: > 100 µM; GI50 [29]: 4.88 µM; TGI [29]: > 100 µM; GI50 [30]: 2.2 µM; TGI [30]: 7.57 µM; GI50 [31]: 3.78 µM; TGI [31]: 11.8 µM; GI50 [32]: 4.47 µM; TGI [32]: > 100 µM; GI50 [33]: 3.51 µM; TGI [33]: > 100 µM; GI50 [34]: 2.31 µM; TGI [34]: 8.22 µM; GI50 [35]: 3.85 µM; TGI [35]: > 100 µM; GI50 [36]: 3.09 µM; TGI [36]: 9.87 µM; GI50 [37]: 3.1 µM; TGI [37]: > 100 µM; GI50 [38]: 2.98 µM; TGI [38]: 8.99 µM; GI50 [39]: 1.8 µM; TGI [39]: 3.51 µM; GI50 [40]: 2.93 µM; TGI [40]: > 100 µM; GI50 [41]: 2.18 µM; TGI [41]: 4.81 µM; GI50 [42]: 2.8 µM; TGI [42]: > 100 µM; GI50 [43]: 3.97 µM; TGI [43]: > 100 µM; GI50 [44]: 4.11 µM; TGI [44]: > 100 µM; GI50 [45]: 4.52 µM; TGI [45]: > 100 µM; GI50 [46]: 3.02 µM; TGI [46]: > 100 µM; GI50 [47]: 3.62 µM; TGI [47]: > 100 µM; GI50 [48]: 1.81 µM; TGI [48]: 7.47 µM; GI50 [49]: 2.98 µM; TGI [49]: > 100 µM; GI50 [50]: 2.64 µM; TGI [50]: 6.21 µM; GI50 [51]: 3.28 µM; TGI [51]: 9.23 µM; GI50 [52]: 2.91 µM; TGI [52]: > 100 µM

From PubChem BioAssay (NCI)
